Measured values from patent US12503453B2, “USP7 inhibition” (Dana-Farber Cancer Institute, Inc., priority 2018, dated 2025).

Legend:
[1] = test system: Ewing sarcoma cell lines, TP53 WT and mutant; assay: Cell proliferation (CellTiter-Glo), panel of Ewing sarcoma cell lines; format: cell-based; conditions: same set of cell lines
Procedure: Cells were plated in 384-well culture-treated plates and allowed to settle overnight. After drug treatment and appropriate incubation time, cell viability was assessed using the CellTiter-Glo Luminescent Cell Viability Assay (Promega). Luminescence was read on a Fluostar Omega Reader (BMG Labtech).

[2] = test system: Ewing sarcoma cell lines, TP53 WT and mutant; conditions: recently reported study; cited from earlier work
full length USP7 = full length USP7 (Homo sapiens (Human), UniProt Q93009); assay: Ub-AMC kinetic assay (ki and kinact); format: biochemical; conditions: pre-incubation 5 min-3 hours; read-out: inhibition constant (Ki)
Procedure: Full length USP7 was tested for its activity in Ubiquitin-AMC assay in presence or absence of inhibitors. USP7 (5 nM) was pre-incubated for 6 hours at room temperature with different concentrations of inhibitors or DMSO as a control in 50 mM HEPES pH 7.5, 0.5 mM EDTA, 11 μM ovalbumin, and 5 mM DTT. Ubiquitin-AMC (Boston Biochem) was then added to a final concentration of 500 nM. The initial rate of the reaction was measured by collecting fluorescence data at one minute intervals over 30-minute period using a Clariostar fluorescence plate reader at excitation and emission wavelength of 345 and 445 nm respectively. The calculated initial rate values were plotted against inhibitor concentrations to determine IC50s. All the experimental data were plotted using Prism GraphPad. All assays for each compound were performed at least twice for each compound.
To determine kobs, the time course curves were fit to the equation y=ymax(1−exp(−kobs·x)). The kobs values were then plotted against the inhibitor concentrations and fit to the equation y=kinact/(1+(ki/x)) to obtain the values for ki and kinact.

full length USP7, sequence (Q93009 whole entry): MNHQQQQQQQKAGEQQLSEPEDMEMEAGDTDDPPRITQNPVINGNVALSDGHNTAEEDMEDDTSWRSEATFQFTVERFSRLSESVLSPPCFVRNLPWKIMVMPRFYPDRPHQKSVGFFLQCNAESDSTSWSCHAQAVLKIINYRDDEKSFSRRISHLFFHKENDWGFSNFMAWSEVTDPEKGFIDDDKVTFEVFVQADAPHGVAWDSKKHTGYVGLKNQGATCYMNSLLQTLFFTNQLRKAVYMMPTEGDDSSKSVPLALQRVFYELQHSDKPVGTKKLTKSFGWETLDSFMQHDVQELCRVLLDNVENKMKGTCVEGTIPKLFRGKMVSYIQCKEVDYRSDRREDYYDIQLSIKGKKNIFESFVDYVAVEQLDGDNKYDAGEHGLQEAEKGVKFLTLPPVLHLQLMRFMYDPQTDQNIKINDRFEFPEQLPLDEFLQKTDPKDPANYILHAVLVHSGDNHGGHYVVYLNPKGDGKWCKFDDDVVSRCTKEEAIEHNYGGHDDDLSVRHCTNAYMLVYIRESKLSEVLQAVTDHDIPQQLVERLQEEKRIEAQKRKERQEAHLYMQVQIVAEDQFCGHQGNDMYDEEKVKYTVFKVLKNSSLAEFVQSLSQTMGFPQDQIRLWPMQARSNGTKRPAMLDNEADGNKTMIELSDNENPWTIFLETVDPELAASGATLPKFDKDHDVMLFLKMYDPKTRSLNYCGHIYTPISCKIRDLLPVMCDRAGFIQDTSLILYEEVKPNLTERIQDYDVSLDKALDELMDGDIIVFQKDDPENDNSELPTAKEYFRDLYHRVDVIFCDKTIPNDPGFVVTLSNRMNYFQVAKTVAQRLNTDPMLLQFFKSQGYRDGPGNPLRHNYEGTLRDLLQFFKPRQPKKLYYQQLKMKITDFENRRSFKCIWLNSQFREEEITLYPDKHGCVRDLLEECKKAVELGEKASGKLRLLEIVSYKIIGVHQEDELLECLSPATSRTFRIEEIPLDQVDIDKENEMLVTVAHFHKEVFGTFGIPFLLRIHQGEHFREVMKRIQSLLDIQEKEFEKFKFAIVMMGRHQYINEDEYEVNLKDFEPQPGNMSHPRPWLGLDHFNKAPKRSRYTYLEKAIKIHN

Ki (full length USP7) [nM] | Compound | specificity for TP53-WT expressing cells [1] | activity against WT and TP53-KO Ewing Sarcoma cells [2]
– | CC(=O)c1cc([N+](=O)[O-])c(Sc2cccc(Cl)c2Cl)s1 [P5091] | little to no specificity for TP53-WT expressing cells | equipotent activity against WT and TP53-KO Ewing Sarcoma cells
2.8 ± 1.8 | CN1CCN(CCC(=O)Nc2ccc3c(=O)n(CC4(O)CCN(C(=O)CCCCNC(=O)c5ccc6c(Cl)c7c(nc6c5)CCCC7)CC4)cnc3c2)CC1 [compound 1, 9-chloro-N-(5-(4-hydroxy-4-((7-(3-(4-methylpiperazin-1-yl)propanamido)-4-oxoquinazolin-3(4H)-yl)methyl)piperidin-1-yl)-5-oxopentyl)-5,6,7,8-tetrahydroacridine-3-carboxamide] | – | –
